US10881656B2, “HIF inhibitors and use thereof” (The General Hospital Corporation, priority 2008, dated 2021)

Experiments:
[1] = target: T1, IRP1 binding to HIF-2a IRE (Homo sapiens, UniProt P21399); assay: Electrophoretic mobility shift assay, HIF-2a IRE probe; conditions: for binding of IRP1 to HIF-2a IRE probe: lysates of treated 786-O cells, EMSA
T1 sequence (P21399 1-889): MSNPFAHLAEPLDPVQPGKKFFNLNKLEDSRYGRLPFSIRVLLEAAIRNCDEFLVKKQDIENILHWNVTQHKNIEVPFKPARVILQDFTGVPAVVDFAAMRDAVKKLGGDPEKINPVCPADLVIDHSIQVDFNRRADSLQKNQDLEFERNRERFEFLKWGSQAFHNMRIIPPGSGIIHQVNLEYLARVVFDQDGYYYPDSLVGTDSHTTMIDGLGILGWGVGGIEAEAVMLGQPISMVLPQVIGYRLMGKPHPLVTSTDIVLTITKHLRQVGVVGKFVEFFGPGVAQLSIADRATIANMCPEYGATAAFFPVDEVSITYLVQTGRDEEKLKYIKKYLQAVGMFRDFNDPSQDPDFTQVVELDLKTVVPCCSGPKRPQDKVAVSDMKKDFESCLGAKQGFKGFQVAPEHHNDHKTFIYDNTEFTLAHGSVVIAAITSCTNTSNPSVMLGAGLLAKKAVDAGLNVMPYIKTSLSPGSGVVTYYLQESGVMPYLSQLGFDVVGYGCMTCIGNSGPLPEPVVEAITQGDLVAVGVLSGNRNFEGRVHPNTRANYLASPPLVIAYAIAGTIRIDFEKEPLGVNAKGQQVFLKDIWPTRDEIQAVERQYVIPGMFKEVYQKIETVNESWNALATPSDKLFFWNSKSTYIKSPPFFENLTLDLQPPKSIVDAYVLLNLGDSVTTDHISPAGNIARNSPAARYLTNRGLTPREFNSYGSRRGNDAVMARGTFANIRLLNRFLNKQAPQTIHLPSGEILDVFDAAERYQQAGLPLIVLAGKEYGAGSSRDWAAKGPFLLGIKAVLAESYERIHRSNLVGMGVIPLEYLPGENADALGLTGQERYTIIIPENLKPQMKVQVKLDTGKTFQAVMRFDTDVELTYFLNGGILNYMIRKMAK
Procedure: EMSAs were performed as described previously (Fillebeen et al., 2003). Briefly, 50 μg lysate from 786-O cells treated with medium only, DMSO, or compounds were incubated with 25,000 cpm wild-type or mutant radiolabeled HIF-2a IRE probe for 20 minutes at room temperature before loading onto non-denaturing acrylamide gels. Supershifts were performed identically, save that 0.2 μg control, IRP1 or IRP2 antibodies were also added. Total protein content was estimated by Bradford Assay (BioRad, 500-0006), and even loading for all experiments was confirmed by Western blot for B-Actin.
The inventors next tested the effect of hypoxia on the binding of IRP1 to the HIF-2a wild-type IRE. […] This is due to decreased mRNA binding, as western blots confirm that neither compound application nor hypoxia affects IRP1 protein expression. The involvement of IRP1 was further confirmed with super-shifting experiments with IRP1 antibody (FIG. 7C). No supershifted bands were observed using IRP2 antibody.
Inventors discovered that compound 76 increased the residual amount of IRP1 bound to the HIF-2a IRE in hypoxia, although not to the same extent as that observed in normoxic cells. […] Lastly, to further investigate the involvement of IRP2 in HIF-2a IRE, the inventors compared side by side IRP2 binding to HIF-2a and Ferritin-L IRE in 786-O cells, in conditions of normoxia or hypoxia and after treatment with compound 76 or DFO (FIG. 7E). While IRP2 binding was clearly detected on Ferritin IRE, the inventors were not able to detect measurable IRP2 binding on HIF-2a IRE.
To examine this latter possibility the inventors performed an electophoretic mobility shift assay (EMSA) using a radiolabeled wild type or mutant IRE probe to determine if IRP1 binding is increased (FIG. 18A). […] This shifted band can be supershifted with IRP1 but not IRP2 antibodies (data not shown). To further examine the ability of PGJ2 to enhance IRP1 activity under conditions of normoxia and hypoxia the inventors tested its effect at various concentrations of ambient oxygen, corresponding to physiologic or extreme conditions of tissue oxygenation.

HUVEC = HUVEC proliferation assay; type: cell-based, human; conditions: conditioned supernatant from compound-treated 786-O cells
Procedure: HUVEC cells were plated in a 96 well plate in HUVEC minimal medium (Chembrex, EBM-2). 24 hours later, medium was replaced with a 1:4 mix of tissue culture medium that had been conditioned from compound or DMSO-only treated 786-O cells and HUVEC minimal medium. HUVEC proliferation was quantified by a colorimetric proliferation assay (WST-1, Roche, Germany).
Conditioned tissue culture medium from compound-treated 786-O cells was tested for its ability to induce human umbilical vein endothelial cell (HUVEC) proliferation.

HIF-2a mRNA = assay: qRT-PCR for HIF-2a mRNA expression; type: cell-based, human; conditions: 786-O derived cells, qRT-PCR normalized to B2M
Procedure: ID NO: 1) and [NT] […] ID NO: 3) and [NT] ID NO: 4) for […] ID NO: 5) and [NT] ID NO: 6) for Transferrin Receptor 1 ([…] ID NO: 7) and [NT] ID NO: 8) for […] ID NO: 9) and [NT] ID NO: 10) for […] ID NO. 11) and [NT] ID NO: 12) for EGLN3. […] ID NO: 13) and [NT] ID NO: 14). Quantitative RT-PCR was performed on total RNA harvested from 7H4 cells treated with medium only, DMSO or compound. […] To test whether the compounds alter HIF-2a stability, the inventors assessed protein half-life following the addition of cycloheximide in compound versus DMSO-only treated cells (see FIG. 10).

HIF-2a mRNA translation = assay: 35S-methionine pulse-label immunoprecipitation of HIF-2a (translation); type: cell-based, human; conditions: 786-O cells
Procedure: Cells were treated with medium only, DMSO, or compound as described for western blots. Following the second day of treatment, cells were washed twice in PBS and then placed into medium only, DMSO, or labeling medium (methionine minus DMEM supplemented with 1× glutamine and 5% dialyzed FBS) and pulse-labeled for 30 minutes at 37° C. with 0.5 mCi ^35S-Methionine (New England Nuclear) per p100 plate. Cells were washed twice in PBS and lysed with RIPA buffer supplemented with protease inhibitors. […] In the case of the pulse-chase experiment, two identically treated plates were placed into chasing medium (DMEM supplemented with 10% Fetal Clone I, 1× Glutamine and 3 mg/mL methionine), placed back into the 37° C. incubator and harvested after 1.5 and 3 hours. Immunoprecipitated samples were subjected to SDS-PAGE, enhanced in sodium salicylate, dried and exposed for 2-3 days before the film was quantified by densitometry.
The effect of HIF inhibitors on protein translation was determined by ^35S-methionine pulse labeling DMSO or compound treated cells. […] Pulse chase experiments confirm that this decrease is not attributable to any effect on the protein half-life (see FIG. 11).
To determine if PGJ2 decreases translation of the HIF2a message, the inventors evaluated the synthesis rate and stability of the newly synthesized HIF2a by an ^35S-methionine pulse chase experiment on PGJ2 or vehicle only DMSO treated 786-O cells. […] Loading control is 1/1000th of the cell lysate used in the respective immunoprecipitation directly loaded into an SDS-PAGE gel.

SMILES	binding of IRP1 to HIF-2a IRE probe [1]	angiogenic activity of renal carcinoma cell supernatant (HUVEC proliferation) (HUVEC)	HIF-2a mRNA expression (HIF-2a mRNA)	HIF-2a mRNA translation (newly synthesized HIF-2a protein) (HIF-2a mRNA translation)	binding of IRP1 to wild-type HIF-2a probe in hypoxia ([1]; 786-O cells, 24 hours hypoxia)
C/C(=C\c1ccccc1)C(=O)CCN(C)C.Cl [Compound 40, 5-(dimethylamino)-2-methyl-1-phenyl-1-penten-3-one hydrochloride]	enhance binding of IRP1 to the HIF-2a IRE	decrease the angiogenic activity of renal carcinoma cell supernatant	do not effect HIF-2a mRNA expression	decrease HIF-2a mRNA translation	
COc1ccc(O)c(/C=C/C(=O)c2c(O)cc(C)oc2=O)c1 [Compound 41, 4-hydroxy-3-[3-(2-hydroxy-5-meoxyphenyl)acryloyl]-6-methyl-2H-pyran-2-one]	enhance binding of IRP1 to the HIF-2a IRE	decrease the angiogenic activity of renal carcinoma cell supernatant	do not effect HIF-2a mRNA expression	decrease HIF-2a mRNA translation	
COC(=O)c1sccc1N/N=C(/C#N)S(C)(=O)=O [Compound 76, methyl 3-{2-[cyano(methylsulfonyl)methylene] hydrazino}thiophene-2-carboxylate]	enhance binding of IRP1 to the HIF-2a IRE	decrease the angiogenic activity of renal carcinoma cell supernatant	do not effect HIF-2a mRNA expression	decrease HIF-2a mRNA translation	enhances binding of IRP1 to wild-type HIF-2a probe in hypoxia
CC1(C)CC(=O)C=C(Sc2ccc(C#N)cc2[N+](=O)[O-])S1 [Compound 77, 4-[(2,2-dimethyl-4-oxo-3,4-dihydro-2H-thiin-6-yl)thio]-3-nitrobenzonitrile]	enhance binding of IRP1 to the HIF-2a IRE	decrease the angiogenic activity of renal carcinoma cell supernatant	do not effect HIF-2a mRNA expression	decrease HIF-2a mRNA translation	
CCCCC/C=C/C=C1/C(=O)C=C[C@@H]1C/C=C\CCCC(=O)O [PGJ2, 15-deoxy-Δ^12,14-prostaglandin J2]	increased the specific IRE binding activity of cell lysates under conditions of both normoxia and hypoxia		no concomitant decrease in HIF2a mRNA expression	significantly decrease the amount of protein translated from the mRNA without decreasing the half-life of the protein	
